Assays:
[1] = Plasma concentration in ICR mouse at 300 mg/kg, po after 0.5 hrs by TF/FVIIa inhibition assay; type: ADME, organism-based; parameters: dose 300 mg/kg, route oral
Coagulation factor VII = target: T1, Coagulation factor VII (Homo sapiens, UniProt P08709); test: Inhibition of human TF/FVIIa complex by chromogenic assay
T1 sequence (P08709 whole entry): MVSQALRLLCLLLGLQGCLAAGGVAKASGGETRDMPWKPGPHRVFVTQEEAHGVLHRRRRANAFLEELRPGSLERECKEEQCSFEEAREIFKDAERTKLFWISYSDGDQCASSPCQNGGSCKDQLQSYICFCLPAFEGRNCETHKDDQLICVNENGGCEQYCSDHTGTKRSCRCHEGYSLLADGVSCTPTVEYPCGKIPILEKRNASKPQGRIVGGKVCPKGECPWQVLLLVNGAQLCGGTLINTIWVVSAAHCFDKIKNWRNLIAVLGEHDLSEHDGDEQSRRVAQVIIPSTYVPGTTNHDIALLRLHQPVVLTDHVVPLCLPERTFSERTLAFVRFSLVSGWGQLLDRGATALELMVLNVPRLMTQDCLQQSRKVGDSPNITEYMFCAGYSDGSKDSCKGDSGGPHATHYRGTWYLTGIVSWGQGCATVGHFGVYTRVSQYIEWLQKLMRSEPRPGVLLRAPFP

Plasma [2] = test: Anticoagulant potency in human citreated plasma assessed as concentration required to double activated partial thromboplastin time; type: functional
Coagulation factor X = Coagulation factor X (Homo sapiens, UniProt P00742); test: Inhibition of human Fxa by chromogenic assay
Chain of Coagulation factor X (P00742 41-179 limits assumed): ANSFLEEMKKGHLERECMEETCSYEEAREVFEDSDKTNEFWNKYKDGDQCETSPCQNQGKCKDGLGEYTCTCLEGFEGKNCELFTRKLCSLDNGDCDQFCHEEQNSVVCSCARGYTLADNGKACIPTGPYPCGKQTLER
Chain of Coagulation factor X (P00742 235-488 limits assumed): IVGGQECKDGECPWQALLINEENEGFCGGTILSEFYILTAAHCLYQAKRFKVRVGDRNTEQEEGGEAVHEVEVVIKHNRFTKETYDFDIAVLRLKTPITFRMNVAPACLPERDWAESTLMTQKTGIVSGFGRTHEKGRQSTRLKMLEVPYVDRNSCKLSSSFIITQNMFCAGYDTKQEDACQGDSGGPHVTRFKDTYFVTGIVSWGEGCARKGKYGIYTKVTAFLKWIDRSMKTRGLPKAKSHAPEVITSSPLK

Trypsin = Trypsin (Homo sapiens, UniProt P07477+P07478+P35030); test: Inhibition of human trypsin by chromogenic assay; type: protein assay
[3] = Plasma concentration in ICR mouse at 300 mg/kg, po after 2 hrs by TF/FVIIa inhibition assay; type: ADME, organism-based; parameters: dose 300 mg/kg, route oral
Plasma [4] = test: Anticoagulant potency in human citreated plasma assessed as concentration required to double prothrombin time; type: functional
Prothrombin = Prothrombin (Homo sapiens, UniProt P00734); test: Inhibition of human thrombin by chromogenic assay
[5] = Plasma concentration in ICR mouse at 100 mg/kg, po after 0.5 hrs by TF/FVIIa inhibition assay; type: ADME, organism-based; parameters: dose 100 mg/kg, route oral
[6] = Plasma concentration in ICR mouse at 100 mg/kg, po after 2 hrs by TF/FVIIa inhibition assay; type: ADME, organism-based; parameters: dose 100 mg/kg, route oral
Cynomolgus monkey [7] = test: Effect on activated partial thromboplastin time in cynomolgus monkey citreated blood at 30 mg/kg, iv; type: functional, Macaca fascicularis
Cynomolgus monkey [8] = test: Effect on bleeding time in cynomolgus monkey at 10 mg/kg, iv; type: functional, Macaca fascicularis
Cynomolgus monkey [9] = test: Effect on activated partial thromboplastin time in cynomolgus monkey citreated blood at 3 mg/kg, iv; type: functional, Macaca fascicularis
[10] = Plasma concentration in ICR mouse at 100 mg/kg, po after 4 hrs by TF/FVIIa inhibition assay; type: ADME, organism-based; parameters: dose 100 mg/kg, route oral
Cynomolgus monkey [11] = test: Effect on bleeding time in cynomolgus monkey at 3 mg/kg, iv; type: functional, Macaca fascicularis
Cynomolgus monkey [12] = test: Prolongation of prothrombin time in cynomolgus monkey citreated blood at 3 mg/kg, iv; type: functional, Macaca fascicularis
Cynomolgus monkey [13] = test: Effect on activated partial thromboplastin time in cynomolgus monkey citreated blood at 10 mg/kg, iv; type: functional, Macaca fascicularis
Cynomolgus monkey [14] = test: Effect on bleeding time in cynomolgus monkey at 30 mg/kg, iv; type: functional, Macaca fascicularis
Cynomolgus monkey [15] = test: Prolongation of prothrombin time in cynomolgus monkey citreated blood at 30 mg/kg, iv; type: functional, Macaca fascicularis
Cynomolgus monkey [16] = test: Prolongation of prothrombin time in cynomolgus monkey citreated blood at 10 mg/kg, iv; type: functional, Macaca fascicularis

CC(C)CNC(=O)c1ccc(-c2ccccc2C(=O)Nc2ccc(C(=N)N)cc2)c(C(=O)O)c1
concentration at 0.5 h [1]: 300 ng/mL | IC50 (Coagulation factor VII): 0.089 µM | Activity (Plasma [2]): 4.3 µM | IC50 (Coagulation factor X): 0.88 µM | IC50 (Trypsin): 4.8 µM | concentration at 2 h [3]: 160 ng/mL | Activity (Plasma [4]): 4.2 µM | IC50 (Prothrombin): > 200 µM

CC(C)C[C@H](NC(=O)c1ccc(-c2ccccc2C(=O)Nc2cccc(C(N)=O)c2)c(C(=O)O)c1)C(=O)O
IC50 (Coagulation factor VII): 2.4 µM

CC(C)C[C@H](CO)NC(=O)c1ccc(-c2ccccc2C(=O)Nc2cccc(C(N)=O)c2)c(C(=O)O)c1
IC50 (Coagulation factor VII): 191 µM

CC(C)C[C@H](NC(=O)c1ccc(-c2ccccc2C(=O)Nc2cccc(C(N)=O)c2)c(C(=O)O)c1)C(N)=O
IC50 (Coagulation factor VII): 4.2 µM

CC(C)CCNC(=O)c1ccc(-c2ccccc2C(=O)Nc2cccc(C(N)=O)c2)c(C(=O)O)c1
IC50 (Coagulation factor VII): 19 µM

CNc1ccc(-c2ccc(C(=O)N[C@H](CO)CC(C)C)cc2C(=O)O)c(C(=O)Nc2cccc(C(N)=O)c2)c1
IC50 (Coagulation factor VII): 0.3 µM

CCNc1ccc(-c2ccc(C(=O)N[C@@H](CC(C)C)C(N)=O)cc2C(=O)O)c(C(=O)Nc2cccc(C(N)=O)c2)c1
IC50 (Coagulation factor VII): 0.3 µM

CC(C)C[C@@H](CO)NC(=O)c1ccc(-c2ccccc2C(=O)Nc2cccc(C(N)=O)c2)c(C(=O)O)c1
IC50 (Coagulation factor VII): 8.5 µM

CNc1ccc(-c2ccc(C(=O)NCC(C)C)cc2C(=O)O)c(C(=O)Nc2cccc(C(N)=O)c2)c1
IC50 (Coagulation factor VII): 0.69 µM | Activity (Plasma [2]): >300 µM | IC50 (Coagulation factor X): > 200 µM | IC50 (Trypsin): 4.8 µM | Activity (Plasma [4]): 150 µM | IC50 (Prothrombin): > 200 µM

CC(C)C[C@H](NC(=O)c1ccc(-c2ccc(NC(C)C)cc2C(=O)Nc2cccc(C(N)=O)c2)c(C(=O)O)c1)C(N)=O
IC50 (Coagulation factor VII): 0.86 µM

CC(C)C[C@H](NC(=O)c1ccc(-c2ccc(NC3CCCCC3)cc2C(=O)Nc2cccc(C(N)=O)c2)c(C(=O)O)c1)C(N)=O
IC50 (Coagulation factor VII): 91 µM

CNc1ccc(-c2ccc(C(=O)N[C@@H](CC(C)C)C(=O)O)cc2C(=O)O)c(C(=O)Nc2cccc(C(N)=O)c2)c1
IC50 (Coagulation factor VII): 0.15 µM | Activity (Plasma [2]): >300 µM | IC50 (Coagulation factor X): > 200 µM | IC50 (Trypsin): > 200 µM | Activity (Plasma [4]): 33 µM | IC50 (Prothrombin): > 200 µM

CNc1ccc(-c2ccc(C(=O)N[C@@H](CC(C)C)C(N)=O)cc2C(=O)O)c(C(=O)Nc2cccc(C(N)=O)c2)c1
IC50 (Coagulation factor VII): 0.18 µM | Activity (Plasma [2]): >300 µM | IC50 (Coagulation factor X): > 200 µM | IC50 (Trypsin): > 200 µM | Activity (Plasma [4]): 20 µM | IC50 (Prothrombin): > 200 µM | concentration at 0.5 h [5]: 280 ng/mL | concentration at 2 h [6]: 210 ng/mL

CNC(=O)[C@H](CC(C)C)NC(=O)c1ccc(-c2ccccc2C(=O)Nc2cccc(C(N)=O)c2)c(C(=O)O)c1
IC50 (Coagulation factor VII): 4.2 µM

CNc1ccc(-c2ccc(C(=O)N[C@H](CO)CC(C)C)cc2C(=O)O)c(C(=O)Nc2ccc(CN)cc2)c1
IC50 (Coagulation factor VII): 1.3 µM

CC(C)C[C@H](NC(=O)c1ccc(-c2ccccc2C(=O)Nc2cccc(C(N)=O)c2)c(C(=O)O)c1)C(=O)N(C)C
IC50 (Coagulation factor VII): 3.2 µM

CC(C)CNC(=O)c1ccc(-c2ccccc2C(=O)Nc2cccc(C(N)=O)c2)c(C(=O)O)c1
IC50 (Coagulation factor VII): 19 µM

CNc1ccc(-c2ccc(C(=O)N[C@@H](CC(C)C)C(N)=O)cc2C(=O)O)c(C(=O)Nc2ccc(CN)cc2)c1
concentration at 0.5 h [1]: 1800 ng/mL | APTT (Cynomolgus monkey [7]): 35 s | IC50 (Coagulation factor VII): 0.59 µM | Activity (Cynomolgus monkey [8]): 2.7 min | APTT (Cynomolgus monkey [9]): 29.1 s | Activity (Plasma [2]): >300 µM | IC50 (Coagulation factor X): > 200 µM | concentration at 4 h [10]: 130 ng/mL | IC50 (Trypsin): > 200 µM | Activity (Cynomolgus monkey [11]): 3.5 min | PT (Cynomolgus monkey [12]): 15.1 s | APTT (Cynomolgus monkey [13]): 32.2 s | Activity (Plasma [4]): 47 µM | Activity (Cynomolgus monkey [14]): 3.7 min | IC50 (Prothrombin): > 200 µM | PT (Cynomolgus monkey [15]): 38.4 s | PT (Cynomolgus monkey [16]): 24.5 s

CCCCNc1ccc(-c2ccc(C(=O)N[C@@H](CC(C)C)C(N)=O)cc2C(=O)O)c(C(=O)Nc2cccc(C(N)=O)c2)c1
IC50 (Coagulation factor VII): 2.2 µM
